According to ChEMBL document CHEMBL5512637, “Development of Membrane-Targeting Fluorescent 2-Phenyl-1H-phenanthro[9,10-d]imidazole-Antimicrobial Peptide Mimic Conjugates against Methicillin-Resistant Staphylococcus aureus” (J Med Chem, 2024):
In brackets after ≈: the same amount, converted by molar mass.

Experiments:
[1] = Selectivity index, ratio of HC50 for sheep erythrocytes to MIC for Staphylococcus aureus ATCC 29213; assay type: toxicity; details: read-out: Selectivity Index
Staphylococcus aureus [2] = assay: Antibacterial activity against Staphylococcus aureus ATCC 29213 incubated for 16 to 18 hrs CLSI based by microbroth dilution assay; assay type: functional; details: time 16-18 hrs
Staphylococcus aureus [3] = assay: Antibacterial activity against methicillin-resistant Staphylococcus aureus clinical isolate M-7 incubated for 16 to 18 hrs CLSI based by microbroth dilution assay; assay type: functional; details: time 16-18 hrs
Staphylococcus aureus [4] = assay: Antibacterial activity against methicillin-resistant Staphylococcus aureus clinical isolate M-6 incubated for 16 to 18 hrs CLSI based by microbroth dilution assay; assay type: functional; details: time 16-18 hrs
Staphylococcus aureus [5] = assay: Antibacterial activity against methicillin-resistant Staphylococcus aureus clinical isolate M-5 incubated for 16 to 18 hrs CLSI based by microbroth dilution assay; assay type: functional; details: time 16-18 hrs
[6] = Hemolytic activity in sheep erythrocytes incubated for 1 hr by absorbance based assay; assay type: toxicity, cell-based, Ovis aries, Erythrocyte
Staphylococcus aureus [7] = assay: Antibacterial activity against methicillin-resistant Staphylococcus aureus clinical isolate M-2 incubated for 16 to 18 hrs CLSI based by microbroth dilution assay; assay type: functional; details: time 16-18 hrs
Staphylococcus aureus [8] = assay: Antibacterial activity against methicillin-resistant Staphylococcus aureus clinical isolate M-9 incubated for 16 to 18 hrs CLSI based by microbroth dilution assay; assay type: functional; details: time 16-18 hrs
Escherichia coli = assay: Antibacterial activity against Escherichia coli ATCC 25922 incubated for 16 to 18 hrs CLSI based by microbroth dilution assay; assay type: functional; details: time 16-18 hrs
Staphylococcus aureus [9] = assay: Antibacterial activity against methicillin-resistant Staphylococcus aureus clinical isolate M-3 incubated for 16 to 18 hrs CLSI based by microbroth dilution assay; assay type: functional; details: time 16-18 hrs
Staphylococcus aureus [10] = assay: Antibacterial activity against methicillin-resistant Staphylococcus aureus clinical isolate M-10 incubated for 16 to 18 hrs CLSI based by microbroth dilution assay; assay type: functional; details: time 16-18 hrs
Staphylococcus aureus [11] = assay: Antibacterial activity against methicillin-resistant Staphylococcus aureus clinical isolate M-1 incubated for 16 to 18 hrs CLSI based by microbroth dilution assay; assay type: functional; details: time 16-18 hrs
Staphylococcus aureus [12] = assay: Antibacterial activity against methicillin-resistant Staphylococcus aureus clinical isolate M-4 incubated for 16 to 18 hrs CLSI based by microbroth dilution assay; assay type: functional; details: time 16-18 hrs
Staphylococcus aureus [13] = assay: Antibacterial activity against methicillin-resistant Staphylococcus aureus clinical isolate M-8 incubated for 16 to 18 hrs CLSI based by microbroth dilution assay; assay type: functional; details: time 16-18 hrs

Row | Compound | selectivity ratio [1] | MIC (Staphylococcus aureus [2]) | MIC (Staphylococcus aureus [3]) | MIC (Staphylococcus aureus [4]) | MIC (Staphylococcus aureus [5]) | HC50 at 1 h [6] | MIC (Staphylococcus aureus [7]) | MIC (Staphylococcus aureus [8]) | MIC (Escherichia coli) | MIC (Staphylococcus aureus [9]) | MIC (Staphylococcus aureus [10]) | MIC (Staphylococcus aureus [11]) | MIC (Staphylococcus aureus [12]) | MIC (Staphylococcus aureus [13])
1 | CCCNC(=O)C[N+](C)(C)CCCn1c(-c2ccc(N(C)C)cc2)nc2c3ccccc3c3ccccc3c21.[Br-] | > 20 | 32 µg/mL | 32 µg/mL | 64 µg/mL | 64 µg/mL | > 640 µg/mL | 32 µg/mL | 32 µg/mL | > 128 µg/mL | 64 µg/mL | 64 µg/mL | 64 µg/mL | 32 µg/mL | 64 µg/mL
2 | CCCCCNC(=O)C[N+](C)(C)CCCCCn1c(-c2ccc(N(C)C)cc2)nc2c3ccccc3c3ccccc3c21.[Br-] | 286 | 2 µg/mL | 2 µg/mL | 2 µg/mL | 2 µg/mL | 572 µg/mL | 2 µg/mL | 2 µg/mL | 64 µg/mL | 2 µg/mL | 4 µg/mL | 4 µg/mL | 2 µg/mL | 2 µg/mL
3 | CCN(CC)C(=O)C[N+](C)(C)CCCCn1c(-c2ccc(N(C)C)cc2)nc2c3ccccc3c3ccccc3c21.[Br-] | > 640 | 16 µg/mL | 16 µg/mL | 16 µg/mL | 16 µg/mL | 16 µg/mL | 16 µg/mL | 16 µg/mL | > 128 µg/mL | 16 µg/mL | 16 µg/mL | 16 µg/mL | 16 µg/mL | 32 µg/mL
4 | CCCNC(=O)C[N+](C)(C)CCCCn1c(-c2ccc(N(C)C)cc2)nc2c3ccccc3c3ccccc3c21.[Br-] | 36.3 | 8 µg/mL | 4 µg/mL | 8 µg/mL | 16 µg/mL | 290 µg/mL | 8 µg/mL | 8 µg/mL | 64 µg/mL | 8 µg/mL | 16 µg/mL | 16 µg/mL | 8 µg/mL | 4 µg/mL
5 | CCNC(=O)C[N+](C)(C)CCCCn1c(-c2ccc(N(C)C)cc2)nc2c3ccccc3c3ccccc3c21.[Br-] | > 40 | 16 µg/mL | 16 µg/mL | 16 µg/mL | 16 µg/mL | > 640 µg/mL | 16 µg/mL | 16 µg/mL | > 128 µg/mL | 16 µg/mL | 16 µg/mL | 16 µg/mL | 16 µg/mL | 32 µg/mL
6 | CCCCCNC(=O)C[N+](C)(C)CCCCn1c(-c2ccccc2)nc2c3ccccc3c3ccccc3c21.[Br-] |  | 4 µg/mL | 2 µg/mL | 2 µg/mL | 2 µg/mL |  | 4 µg/mL | 2 µg/mL | 32 µg/mL | 4 µg/mL | 2 µg/mL | 2 µg/mL | 2 µg/mL | 2 µg/mL
7 | CN(C)c1ccc(-c2nc3c4ccccc4c4ccccc4c3n2CCCCC[N+](C)(C)CC(=O)N2CCSCC2)cc1.[Br-] | > 160 | 4 µg/mL | 4 µg/mL | 4 µg/mL | 8 µg/mL | > 640 µg/mL | 8 µg/mL | 4 µg/mL | > 128 µg/mL | 4 µg/mL | 8 µg/mL | 8 µg/mL | 4 µg/mL | 4 µg/mL
8 | C[C@@H](O)[C@H]1C(=O)N2C(C(=O)O)=C(S[C@@H]3CN[C@H](C(=O)N(C)C)C3)[C@H](C)[C@H]12 [MEROPENEM] |  |  |  |  |  |  |  |  | 0.063 µg/mL (≈ 0.164 µM) |  |  |  |  | 
